Each compound was assayed on RS virus (assay: Evaluation of anti-RS viral activity (MTT assay kit; viable cell count of RS virus-infected Hep2 cells)). Conditions: additive amount 80 μM; Hep2 cells, RS virus 1 MOI, cultured 72 hours; DMSO control = 100.
Format: cell-based, RS virus (human respiratory syncytial virus)
Protocol: The aforementioned Compound 1 (No. 150) to Compound 22 (No. 306) were measured for anti-RS viral activity according to the protocol of MTT assay kit (CellTiter-Glo (registered trade name) Assay, Promega Corporation).
In a 96-well plate, Hep2 cells were seeded at 1×10^3 cells per well, and each of compounds in the amount shown in Table 7, and RS virus having an infectivity titer of 1 MOI were added, and cultured for 72 hours, and then a viable cell count was determined. As a control, a well containing DMSO at 25 μM (when the additive amount of the compound is 80 μM) or 5 μM (when the additive amount of the compound is 16 μM) in place of a compound was prepared.

Question: `COC(=O)[C@@H]1N[C@H](c2cccc([C@H]3N[C@@H](C(=O)OC)[C@H](c4ccccc4)[C@H]3[N+](=O)[O-])c2)[C@H]([N+](=O)[O-])[C@H]1c1ccccc1` [Compound 2, dimethyl 5,5′-(1,3-phenylene) (2R, 2′R, 3S, 3′S, 4R, 4′R, 5R, 5′R)-bis(4-nitro-3-phenylpyrrolidine-2-carboxylate)] was tested. Which “Survival Rate (%)” value did it give?
Answer: 332%

Same assay, conditions: human respiratory syncytial virus, HEp-2, 72 h, read-out: Survival Rate (%)

Question: Which viability at 16 µM does the source give for `COc1ccc(NCCNc2ccc(OC)cc2)cc1` [Compound 6, N1,N2-bis(4-methoxyphenyl)ethane-1,2-diamine] here?
Answer: 472%

Question: With `c1ccc(-c2nnc(-c3ccccc3)o2)cc1` [Compound 21, 2,5-diphenyl-1,3,4-oxadiazole] as the compound, how does the viability at 80 µM read?
Answer: 248%

Same assay, conditions: human respiratory syncytial virus, HEp-2; additive amount 16 μM; Hep2 cells, RS virus 1 MOI, cultured 72 hours; DMSO control = 100; read-out: Survival Rate (%)

Question: With `c1ccc(NCCNc2ccccc2)cc1` [Compound 5, N1,N2-diphenylethane-1,2-diamine] as the compound, how does the viability at 16 µM read?
Answer: 471%

Question: With `Clc1ccc(NCCNc2ccc(Cl)cc2)cc1` [Compound 7, N1,N2-bis(4-chlorophenyl)ethane-1,2-diamine] as the compound, how does the viability at 16 µM read?
Answer: 405%

Question: `O=P12c3ccccc3CN1[C@H](CNc1ccccc1)CCN2c1ccccc1` (stereo partly drawn) [Compound 8, (4S,11R)-1-phenyl-4-((phenylamino)methyl)-1,2,3,4,6-pentahydrobenzo[3,4][1,2]azaphosphoro [1,2-a][1,3,2]diazaphosphinine 11-oxide] was tested. Which viability at 16 µM did it give?
Answer: 815%

Question: How did the viability at 16 µM turn out when `Cc1ccc2c(c1)[C@](C[N+](=O)[O-])(c1c[nH]c3c(C)cccc13)C(=O)N2C` [Compound 10, (S)-1,5-dimethyl-3-(7-methyl-1H-indole-3-yl)-3-(nitromethyl)indoline-2-one] was run?
Answer: 294%

Question: How did the viability at 16 µM turn out when `c1ccc(CN2[C@H](c3cccc([C@@H]4N[C@@H](c5ccccc5)[C@H](c5ccccc5)N4Cc4ccccc4)n3)N[C@@H](c3ccccc3)[C@@H]2c2ccccc2)cc1` [Compound 11, 2,6-bis((2R,4S,5S)-1-benzyl-4,5-diphenylimidazolidine-2-yl)pyridine] was run?
Answer: 274%

Question: For `CC(C)(C)OC(=O)[C@H]1N[C@H](c2ccccc2)[C@@]2(C(=O)Nc3ccccc32)[C@@H]1c1ccc(Br)cc1` [Compound 12, tert-butyl(2′R,3R,4′S,5′S)-4′-(4-bromophenyl)-2-oxo-2′-phenylspiro[indoline-3,3′-pyrrolidine]-5′-carboxylate], which viability at 16 µM is on record?
Answer: 475%

Question: For `Cc1ccc([C@@H]2[C@@H](C(=O)OC(C)(C)C)N[C@H](c3ccccc3)[C@@]23C(=O)Nc2ccccc23)cc1` [Compound 13, tert-butyl(2′R,3R,4′S,5′S)-2-oxo-2′-phenyl-4′-(p-tolyl)spiro[indoline-3,3′-pyrrolidine]-5′-carboxylate], which viability at 16 µM is on record?
Answer: 406%

Question: With `C=CCN1C(=O)/C(=C/[N+](=O)[O-])c2ccccc21` [Compound 14, (E)-1-allyl-3-(nitromethylene)indoline-2-one] as the compound, how does the viability at 16 µM read?
Answer: 409%

Question: `Oc1c(Br)cc(Br)cc1/C=N/[C@H](c1ccccc1)[C@@H](c1ccccc1)N1Cc2ccccc2C1` [Compound 15, 2,4-dibromo-6-((E)-(((1R,2R)-2-(isoindoline-2-yl)-1,2-diphenylethyl)imino)methyl)phenol] was tested. Which viability at 16 µM did it give?
Answer: 393%

Question: For `O=C1CCCCCC1C(Nc1ccc(OC(F)(F)F)cc1)c1ccccc1` (stereo not drawn) [Compound 16, 2-(phenyl((4-(trifluoromethoxy)phenyl)amino)methyl)cycloheptane-1-one], which viability at 16 µM is on record?
Answer: 294%

Question: How did the viability at 16 µM turn out when `CCOC(=O)C1=CN2C(=O)CCN2[C@@H]1C1CCCCC1` [Compound 19, ethyl(R)-1-cyclohexyl-5-oxo-6,7-dihydro-1H,5H-pyrazolo[1,2-a]pyrazole-2-carboxylate] was run?
Answer: 209%

Same assay, conditions: human respiratory syncytial virus, HEp-2; additive amount 80 μM; Hep2 cells, RS virus 1 MOI, cultured 72 hours; DMSO control = 100; read-out: Survival Rate (%)

Question: For `COC(=O)C1=C(c2ccccc2)C(c2ccccc2)(C(C#N)C#N)C(C(=O)OC)=C1O` (stereo not drawn) [Compound 1, dimethyl 5-(dicyanomethyl)-2-hydroxy-4,5-diphenylcyclopenta-1,3-diene-1,3-dic arboxylate], which viability at 80 µM is on record?
Answer: 359%

Question: Which viability at 80 µM does the source give for `N[C@@H](C(=O)O)c1cccc2ccccc12` [Compound 4, (R)-2-amino-2-(naphthalene-1-yl) acetic acid] here?
Answer: 450%

Question: How did the viability at 80 µM turn out when `CN1C(=O)[C@@](C[N+](=O)[O-])(c2c[nH]c3ccccc23)c2ccccc21` [Compound 9, (S)-3-(1H-indole-3-yl)-1-methyl-3-(nitromethyl)indoline-2-one] was run?
Answer: 276%

Question: How did the viability at 80 µM turn out when `CCOC(=O)C1=CN2C(=O)CCN2[C@@H]1c1cccc(Cl)c1` [Compound 17, ethyl(R)-1-(3-chlorophenyl)-5-oxo-6,7-dihydro-1H,5H-pyrazolo[1,2-a]pyrazole-2-carboxylate] was run?
Answer: 264%

Question: How did the viability at 80 µM turn out when `CCOC(=O)C1=CN2C(=O)CCN2[C@@H]1c1ccc(OC)cc1` [Compound 18, ethyl(R)-1-(4-methoxyphenyl)-5-oxo-6,7-dihydro-1H,5H-pyrazolo[1,2-a]pyrazole-2-carboxylate] was run?
Answer: 349%

Question: For `COC(=O)[C@H]1N[C@@H](c2ccccc2)[C@@H]([N+](=O)[O-])[C@@H]1c1ccccc1` [Compound 20, methyl(2S,3R,4S,5S)-4-nitro-3,5-diphenylpyrrolidine-2-carboxylate], which viability at 80 µM is on record?
Answer: 344%

Question: For `CCOC(=O)C1=CN2C(=O)CC(C)(C)N2C1c1ccccc1` (stereo not drawn) [Compound 22, ethyl7,7-dimethyl-5-oxo-1-phenyl-6,7-dihydro-1H,5H-pyrazolo[1,2-a]pyrazole-2-carboxyl ate], which viability at 80 µM is on record?
Answer: 339%
